Key:
[1] = system: U-2 OS cells; test: C-circle assay in cells overexpressing FANCM variants; format: cell-based, human; conditions: stable overexpression, compared to vector control
Excerpt: (a) Schematic of FANCM domain interactions, mutations or deletions. For clarity, domains have been color coded by functional role (bottom panel). (b) Quantitation of metaphase-TIFs in U-2 OS cells stably overexpressing wild-type (FANCM+) or FANCM mutants. Scatterplot bars represent the mean±SEM. Out of 3 experiments, n≥110 metaphases scored for each mutant, *p<0.05, **p<0.005, Mann-Whitney test. (c) Quantitation of fragile telomeres in U-2 OS cells stably overexpressing wild-type (FANCM+) or FANCM mutants. Scatterplot bars represent the mean±SEM. Out of 3 experiments, n>100 metaphases scored for each mutant, *p<0.05, **p<0.005, Mann-Whitney test. (d) Representative dot blots and quantitation of C-circle assays in U-2 OS cells stably overexpressing wild-type (FANCM+) or FANCM domain mutants. C-circles were normalized to the mean of vector control. Error bars represent mean±SEM from n=3 experiments, *p<0.05, **p<0.005, Student's t-test. (e) Single molecule analysis of telomeric extension events (top panel) and length of extension events (bottom panel) in U-2 OS cells stably overexpressing wild-type (FANCM+) or FANCM domain mutants. Error bars represent mean±SEM of n≥350 fibers out of 3 experiments, *p<0.05, **p<0.005, Student's t-test.
FIG. 23. Defects in ALT phenotype suppression are exacerbated by overexpression of a double-mutant (DM) FANCM, in which both the MM2 domain (FF>AA) and the translocase domain (K117R) of FANCM are mutated. (a) Representative dot blots and quantitation of C-circle assays in U-2 OS cells stably overexpressing wild-type (WT) or FANCM domain mutants (K117R, FF>AA; DM). C-circles were normalized to the mean of empty vector control (EV). Error bars represent mean±SEM from n=3 experiments, *p<0.05, **p<0.005, Student's t-test. (b) Quantitation of APB frequency in U-2 OS cells overexpressing wild-type (WT) or FANCM mutants. Scatterplot bars represent the mean±SEM. Out of three experiments, n=150 cells were scored for each mutant, **p<0.005, Mann-Whitney test. (c) Quantitation of metaphase-TIFs in U-2 OS cells stably overexpressing wild-type (WT) or FANCM mutants. Scatterplot bars represent the mean±SEM. Out of three experiments, n=120 metaphases scored for each mutant, *p<0.05, **p<0.005, Mann-Whitney test. All statistical comparisons are relative to EV control.
(§1) Empty vector and wild-type FANCM (pCMV6-Myc-DDK) constructs were obtained from Origene Technologies. Wild type FANCM (SEQ ID NO: 2) and FANCM mutants (SEQ ID NOs: 19 to 28) were cloned into the pLenti-C-Myc-DDK-IRES-Neo backbone (Origene Technologies) by restriction enzyme subcloning of gene blocks synthesized by Integrated DNA Technologies (IDT). Lentivirus was produced by the Vector and Genome Engineering Facility (Children's Medical Research Institute). For stable overexpression, cells were transduced with lentivirus, allowed to recover for 24 h, and subject to G418 selection. Cells were maintained in G418 to ensure sustained overexpression.
C-circles were amplified with Phi29 polymerase using dATP, dTTP and dGTP overnight. Products were dot blotted onto Biodyne B membranes (Pall) and pre-hybridised in PerfectHyb Plus (Sigma) for at least 30 min. Radiolabeled telomeric C-probe was then added and blots were hybridized overnight at 37° C. (Henson et al., 2009). Blots were washed with 0.5×SSC, 0.1% SDS three times for 5 min each then exposed to phosphor screen. Imaging was performed on the Typhoon FLA 7000 system (GE Healthcare) with a PMT of 750 V.

[2] = system: U-2 OS cells; test: TRF analysis of cells overexpressing FANCM variants; format: cell-based, human; conditions: overexpression
Excerpt: (a) Western immunoblotting of stable wild-type FANCM (FANCM+) or FANCM mutant overexpression in U-2 OS cells. […] (b) TRF analysis of U-2 OS cells overexpressing wild-type (FANCM+) or FANCM mutants. Gels were hybridized under native and denatured conditions with radiolabelled telomeric probes to detect the C-strand and G-strand. (c) Tukey boxplots of APB frequency (top panel) and mean APB telomere intensity (bottom panel) in U-2 OS cells overexpressing wild-type (FANCM+) or FANCM mutants. Out of 3 experiments, n=150 cells scored per variant, *p<0.05, **p<0.005, Mann-Whitney test.
as §1
Genomic DNA was digested with 4 U/μg of HinfI and RsaI overnight at 37° C. […]

| Substance | C-circle levels [1] | low molecular weight ss C-rich telomeric DNA [2] |
| --- | --- | --- |
| K117R: FANCM mutant (SEQ ID NO: 20) substituted at K117R, DEAH domain disrupted | did not cause a change in C-circle levels | smear of low molecular weight ss C-rich telomeric DNA was observed |
| FF>AA: FANCM mutant (SEQ ID NO: 25), double substitution F1232A/F1236A within the MM2 domain | approximate two-fold increase in C-circles | smear of low molecular weight ss C-rich telomeric DNA was observed |

Reference: patent publication US20230149507A1, “TREATMENT OF ALT CANCERS” (INSTITUTO DE MEDICINA MOLECULAR JOÃO LOBO ANTUNES, priority 2019, published 2023)
